Measured values as given in patent US20020164346A1, “Altered peptide ligands” (priority 2001, published 2002).

System: normal donor HLA-A2+ T cells
Experiment: In vitro T cell education with peptide-pulsed autologous dendritic cells; lysis of 51Cr-labeled peptide-pulsed T2 cells
Format: cell-based, human
Source text: Normal donor aphoresis products were obtained from Dana-Farber Cancer Research Institute (Boston, Mass.). PBMC were isolated by centrifugation over Ficoll (Nycomed, Oslo, Norway). CD8^+ T cells were isolated using magnetic beads (Dynal, Oslo, Norway) according to the manufacturers instructions. To generate autologous dendritic cells, monocytes were isolated from the PBMC and treated with GM-CSF (Immunex, Seattle, Wash.) and IL-4 (PeproTech, London, England) for 6 days as previously described. One day prior to establishing the T cell/DC cocultures, the DCs were pulsed with peptides (10 μg/ml) overnight followed by the addition of the previously isolated CD8+ T cells at a T:DC of 10:1. Cultures were restimulated with peptide-pulsed DCs. IL-2 (50 IU/ml) was introduced on day 8 and added every 3-4 days as needed. The bulk cultures were assayed one week after the fifth restimulation. Peptide-pulsed T2 cell targets were prepared as described above and adenovirus-infected target cells were allowed to incubate with the viruses for 48 hours at the indicated MOI prior to being used in the CTL assay. […]
Altered peptides give rise to T cells that recognize the native epitope. […] All data points represent the average of 4 replicates and background lysis, as determined using T2 cells pulsed with equivalent amounts of DMSO containing no peptide, was subtracted out.

“native gp100 peptide ligand: native (wild-type) gp100209-217 peptide epitope of the human melanoma antigen gp100” was tested, and the “ability of peptide-educated T cells to lyse targets displaying the native antigen/ligand” value (T cells from normal (healthy) donors educated with the peptide) was “generally inefficient” and the “eliciting reactive T cells (lysis of T2 cells pulsed with native peptide)” value (after 5 weekly stimulations, bulk T cell cultures, FIG. 3) was “relatively poor”.
